Entries after “also recorded” stand apart in the source; their conditions may differ. Read-outs that look alike come from different tables or passages of the source.
Tests used:
[1] = target: T1, acetylcholine esterase (AChE) (Mus musculus, UniProt P21836); experiment: In vitro assay for choline esterase inhibition (Ellman method), acetylthiocholine substrate, mouse brain homogenate; assay type: biochemical
T1 construct: brain homogenate and serum of mouse were used as choline esterase enzyme sources; from tissue; host or cells: mouse brain homogenate
T1 sequence (P21836 32-614): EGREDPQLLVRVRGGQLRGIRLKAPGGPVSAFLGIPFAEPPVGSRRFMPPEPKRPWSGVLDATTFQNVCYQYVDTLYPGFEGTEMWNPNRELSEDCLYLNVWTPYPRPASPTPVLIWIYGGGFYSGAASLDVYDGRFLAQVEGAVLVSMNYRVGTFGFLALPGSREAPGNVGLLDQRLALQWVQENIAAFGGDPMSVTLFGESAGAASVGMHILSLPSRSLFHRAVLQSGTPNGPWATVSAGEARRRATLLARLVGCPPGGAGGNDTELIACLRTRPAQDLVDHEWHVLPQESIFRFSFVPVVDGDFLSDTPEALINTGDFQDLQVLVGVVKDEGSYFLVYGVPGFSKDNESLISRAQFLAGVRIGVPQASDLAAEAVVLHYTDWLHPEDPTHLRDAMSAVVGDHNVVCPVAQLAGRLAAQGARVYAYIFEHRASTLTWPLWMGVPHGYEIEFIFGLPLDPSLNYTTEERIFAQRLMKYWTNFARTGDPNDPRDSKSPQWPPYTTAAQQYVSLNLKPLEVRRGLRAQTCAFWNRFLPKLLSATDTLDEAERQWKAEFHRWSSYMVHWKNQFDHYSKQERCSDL
Protocol: (§1) For measurement of esterase activity, brain homogenate and serum of mouse were used as choline esterase enzyme sources, and the method of Ellman et. al (Biochemical pharmacology 7: 88-95 1961) were referred. Compound of each example were diluted in dimethylsulfoxide.
(§2) In detail, acetylthiocholine or butyrylthiocholine as substrates, test compounds, and DNTB [[…]] were added to the mouse brain homogenate or serum, respectively.
(§3) After incubation, thiocholine was produced by enzyme reaction in the mixture, and then, the yellow product was formed by the reaction of thiocholine and DTNB. The activity of acetylcholine esterase (AChE) or butyrylcholine esterase (BuChE) was evaluated by determination of absorbance at 415 nm. […] And the selectivity for BuChE inhibition of each compound was calculated by the ratio: IC50 (AchE)/IC50 (BuChE).

[2] = target: T2, butyrylcholine esterase (BuChE) (Mus musculus, UniProt Q03311); experiment: In vitro assay for choline esterase inhibition (Ellman method), butyrylthiocholine substrate, mouse serum; assay type: biochemical; settings: for Ratio AChE/BuChE: selectivity for BuChE inhibition: IC50 (AchE)/IC50 (BuChE)
T2 construct: brain homogenate and serum of mouse were used as choline esterase enzyme sources; from tissue; host or cells: mouse serum
Protocol: as §1, §2, §3

[3] = mouse brain homogenate, acetylthiocholine, absorbance at 415 nm, read-out: AChE inhibitory activity IC50
[4] = mouse serum, butyrylthiocholine, absorbance at 415 nm, read-out: BuChE inhibitory activity IC50

T2 sequence (Q03311 30-603): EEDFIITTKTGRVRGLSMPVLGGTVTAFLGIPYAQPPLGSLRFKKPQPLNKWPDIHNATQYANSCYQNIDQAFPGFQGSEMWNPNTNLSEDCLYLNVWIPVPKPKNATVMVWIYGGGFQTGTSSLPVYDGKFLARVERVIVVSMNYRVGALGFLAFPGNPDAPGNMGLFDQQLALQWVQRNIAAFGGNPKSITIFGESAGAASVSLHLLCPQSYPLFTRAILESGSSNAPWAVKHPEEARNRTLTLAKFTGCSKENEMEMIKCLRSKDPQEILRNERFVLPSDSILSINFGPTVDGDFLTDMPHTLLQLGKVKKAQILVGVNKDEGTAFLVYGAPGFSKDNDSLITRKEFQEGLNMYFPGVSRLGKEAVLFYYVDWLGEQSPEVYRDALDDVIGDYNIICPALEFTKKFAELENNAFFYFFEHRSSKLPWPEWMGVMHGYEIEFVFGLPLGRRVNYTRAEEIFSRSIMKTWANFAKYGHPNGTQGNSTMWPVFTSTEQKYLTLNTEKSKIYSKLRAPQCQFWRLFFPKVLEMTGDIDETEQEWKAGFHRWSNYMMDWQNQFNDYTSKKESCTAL

SMILES	IC50 [1, 3] [nM]	IC50 [2, 4] [nM]	Ratio AChE/BuChE [2]	selectivity to butyrylcholinesterase (BuChE versus AChE inhibitory activity), in words ([2]; summary of Tables 1-3)	IC50 [1] [nM]	IC50 [2] [nM]	butyrylcholinesterase inhibitory activity, in words ([2]; summary of Tables 1-3)
O=C(NCc1ccccn1)Oc1ccc2c(c1)CCN2Cc1ccccc1 [Example 102, 1-benzylindolin-5-yl 2-pyridylmethylcarbamate]	10000	130	77	–	–	–	–
O=C(NCCc1ccccc1)Oc1ccc2c(c1)CCN2Cc1ccccc1 [Example 16, 1-benzylindolin-5-yl phenethylcarbamate]	9800	42	230	much higher	–	–	–
O=C(NC1CCCCC1)Oc1ccc2c(c1)CCN2Cc1ccccc1 [Example 20, 1-benzylindolin-5-yl cyclohexylcarbamate]	–	–	>1500	much higher	> 100000	67	–
CN(CC1CCOCC1)C(=O)Oc1ccc2c(c1)C(C)(C)CN2Cc1ccccn1 [Example 218, N-methyl-O-[1-(2-pyridylmethyl)-3,3-dimethylindolin-5-yl]-N-(4-tetrahydropyranylmethyl)carbamate]	–	–	13000	much higher	8500	0.66	–
CN(C)C(=O)Oc1ccc2c(c1)CCN2Cc1ccccc1 [Example 221, N,N-dimethyl-O-(1-benzylindolin-5-yl)carbamate]	–	–	76	–	13000	170	–
CCCCCCNC(=O)Oc1ccc2c(c1)CCN2Cc1ccccc1 [Example 17, 1-benzylindolin-5-yl n-hexylcarbamate]	8000	16	500	much higher	–	–	–
O=C(NCc1ccco1)Oc1ccc2c(c1)CCN2Cc1ccccc1 [Example 18, 1-benzylindolin-5-yl furfurylcarbamate]	1800	38	47	–	–	–	–
COc1ccc(CCNC(=O)Oc2ccc3c(c2)CCN3Cc2ccccc2)cc1 [Example 32, 1-benzylindolin-5-yl 4-methoxyphenethylcarbamate]	–	–	>630	–	> 100000	160	–
O=C(NC1CCCc2ccccc21)Oc1ccc2c(c1)CCN2Cc1ccccc1 (centres unmarked) [Example 96, 1-benzylindolin-5-yl-1,2,3,4-tetrahydronaphthalen-1-ylcarbamate]	> 100000	17	>5900	much higher	–	–	–
Cc1ccc(C(C)NC(=O)Oc2ccc3c(c2)CCN3Cc2ccccc2)cc1 (centres unmarked) [Example 97, 1-benzylindolin-5-yl 1-(p-tolyl)ethylcarbamate]	–	–	>220	–	> 100000	450	–
O=C(Nc1ccc2c(c1)OCO2)Oc1ccc2c(c1)CCN2Cc1ccccc1 [Example 12, 1-benzylindolin-5-yl 5-benzo[d][1,3]dioxolylcarbamate]	11000	290	38	–	–	–	–
CC(C)(C)CCNC(=O)Oc1ccc2c(c1)CCN2Cc1ccccc1 [Example 42, 1-benzylindolin-5-yl 3,3-dimethylbutylcarbamate]	–	–	>4300	much higher	> 100000	23	–
CN(CC1CCOCC1)C(=O)Oc1ccc2c(c1)C(C)(C)CN2Cc1ccccc1 [Example 217, O-(1-benzyl-3,3-dimethylindolin-5-yl)-N-methyl-N-(4-tetrahydropyranylmethyl)carbamate]	–	–	260000	much higher; also recorded: highest selectivity to butyrylcholinesterase	93000	0.36	highest butyrylcholinesterase inhibitory activity
CCC(COC)NC(=O)Oc1ccc2c(c1)CCN2Cc1ccccc1 (centres unmarked) [Example 46, 1-benzylindolin-5-yl 1-methoxybutan-2-ylcarbamate]	–	–	>670	–	> 100000	150	–
O=C(Nc1ccc2c(c1)CCO2)Oc1ccc2c(c1)CCN2Cc1ccccc1 [Example 14, 1-benzylindolin-5-yl 2,3-dihydro-1-benzofuran-5-ylcarbamate]	2700	41	66	–	–	–	–
O=C(NC1CCCCC1)Oc1ccc2c(c1)CCN2Cc1ccccn1 [Example 149, 1-(2-pyridylmethyl)indolin-5-yl cyclohexylcarbamate]	2200	58	38	–	–	–	–
CNC(=O)Oc1ccc2c(c1)CCN2Cc1ccccc1 [Example 131, 1-benzylindolin-5-yl methylcarbamate]	–	–	6.2	–	1300	210	–
CCCCCC(C)NC(=O)Oc1ccc2c(c1)CCN2Cc1ccccc1 (centres unmarked) [Example 50, 1-benzylindolin-5-yl 2-heptylcarbamate]	–	–	>1900	much higher	> 100000	53	–
O=C(NCC12CC3CC(CC(C3)C1)C2)Oc1ccc2c(c1)CCN2Cc1ccccc1 [Example 47, 1-benzylindolin-5-yl 1-adamantanemethylcarbamate]	–	–	>1200	much higher	> 100000	82	–
O=C(NCc1ccccc1)Oc1ccc2c(c1)CCN2Cc1ccccc1 [Example 15, 1-benzylindolin-5-yl benzylcarbamate]	1800	13	140	much higher	–	–	–
O=C(NC1CCCCCCC1)Oc1ccc2c(c1)CCN2Cc1ccccc1 [Example 45, 1-benzylindolin-5-yl cyclooctylcarbamate]	–	–	>4800	much higher	> 100000	21	–
CN(CC1CCOCC1)C(=O)Oc1ccc2c(c1)C(C)(C)CN2Cc1cccnc1 [Example 219, N-methyl-O-[1-(3-pyridylmethyl)-3,3-dimethylindolin-5-yl]-N-(4-tetrahydropyranylmethyl)carbamate]	–	–	17000	much higher	20000	1.2	–
CN(CC1CCOCC1)C(=O)Oc1ccc2c(c1)C(C)(C)CN2Cc1ccncc1 [Example 220, N-methyl-O-[1-(4-pyridylmethyl)-3,3-dimethylindolin-5-yl]-N-(4-tetrahydropyranylmethyl)carbamate]	–	–	11000	much higher	21000	1.9	–
CCCN(CCC)C(=O)CC1CN(Cc2ccccc2)c2ccc(OC(=O)Nc3ccc(C(C)C)cc3)cc21 (centres unmarked) [Example 161, 1-benzyl-3-(di-n-propylaminocarbonylmethyl)indolin-5-yl 4-isopropylphenylcarbamate]	–	–	>670	–	> 100000	150	–
CC(C)c1ccc(NC(=O)Oc2ccc3c(c2)C(C)(C)CN3Cc2ccccc2)cc1 [Example 145, 1-benzyl-3,3-dimethylindolin-5-yl-4-isopropylphenylcarbamate]	> 100000	280	>360	–	–	–	–
CC(C)c1ccc(NC(=O)Oc2ccc3c(c2)CCN3Cc2cccc(O)c2)cc1 [Example 62, 1-(3-hydroxybenzyl)indolin-5-yl 4-isopropylphenylcarbamate]	–	–	>220	–	> 100000	450	–
O=C(NC1CC1)Oc1ccc2c(c1)CCN2Cc1ccccc1 [Example 41, 1-benzylindolin-5-yl cyclopropylcarbamate]	36000	190	190	–	–	–	–
COc1ccc(NC(=O)Oc2ccc3c(c2)CCN3Cc2ccccc2)cc1OC [Example 140, 1-benzylindolin-5-yl 3,4-dimethoxyphenylcarbamate]	–	–	>910	–	> 100000	110	–
CC(C)c1ccc(NC(=O)Oc2ccc3c(c2)CCN3Cc2ccc[nH]2)cc1 [Example 65, 1-[(pyrrol-2-yl)methyl]indolin-5-yl-4-isopropylphenylcarbamate]	> 100000	700	>140	–	–	–	–

Reference: patent US8686024B2, “Indoline derivatives” (priority 2009, dated 2014)
